Among the data in ChEMBL document CHEMBL1139192, “Novel bis(indolyl)maleimide pyridinophanes that are potent, selective inhibitors of glycogen synthase kinase-3” (Bioorg Med Chem Lett, 2007) are residual activity values, retold here.

Experiment [1] has as its target T1, Serine/threonine-protein kinase 3 (Homo sapiens) (UniProt Q13188).
T1 sequence (whole entry): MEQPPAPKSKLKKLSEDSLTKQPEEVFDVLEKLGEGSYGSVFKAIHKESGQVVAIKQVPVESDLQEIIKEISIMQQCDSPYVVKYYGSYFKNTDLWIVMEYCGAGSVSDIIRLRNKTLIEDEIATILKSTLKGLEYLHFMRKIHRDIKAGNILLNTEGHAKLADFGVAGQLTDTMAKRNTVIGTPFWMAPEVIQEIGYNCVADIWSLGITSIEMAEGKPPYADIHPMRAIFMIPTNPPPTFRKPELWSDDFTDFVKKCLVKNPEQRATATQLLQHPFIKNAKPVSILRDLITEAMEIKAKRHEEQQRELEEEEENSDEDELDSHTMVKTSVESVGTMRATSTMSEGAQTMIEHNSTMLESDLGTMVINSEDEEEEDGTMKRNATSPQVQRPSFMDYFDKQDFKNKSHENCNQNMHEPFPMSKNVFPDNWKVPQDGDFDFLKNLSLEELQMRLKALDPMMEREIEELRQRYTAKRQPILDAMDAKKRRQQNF
The experiment can be described thus: Inhibition of human MST2 at 1 uM relative to control; values are per cent of control.

Experiment [2] concerns the target Mitogen-activated protein kinase 14 (Homo sapiens) (UniProt Q16539). Put plainly: Inhibition of human SAPK2a at 1 uM relative to control; values are per cent of control.
Experiment [3] has as its target Protein kinase C delta type (Homo sapiens) (UniProt Q05655). Put plainly: Inhibition of human PKCdelta at 1 uM relative to control; values are per cent of control.
For experiment [4], the target named is Tyrosine-protein kinase SYK (Homo sapiens) (UniProt P43405). Put plainly: Inhibition of human Syk at 1 uM relative to control; values are per cent of control.
Experiment [5] concerns the target Glycogen synthase kinase-3 alpha (Homo sapiens) (UniProt P49840). Put plainly: Inhibition of human GSK3alpha relative to control; values are per cent of control.
The target of experiment [6] is Rho-associated protein kinase 2 (Homo sapiens) (UniProt O75116). Put plainly: Inhibition of human ROCK2 at 1 uM relative to control; values are per cent of control.
The species named for experiment [7] is Homo sapiens. Put plainly: Residual activity of human PKBalpha at 1 uM relative to control.
Experiment [8] concerns the target T2, Serine/threonine-protein kinase Chk1 (Homo sapiens) (UniProt O14757).
T2 sequence (whole entry): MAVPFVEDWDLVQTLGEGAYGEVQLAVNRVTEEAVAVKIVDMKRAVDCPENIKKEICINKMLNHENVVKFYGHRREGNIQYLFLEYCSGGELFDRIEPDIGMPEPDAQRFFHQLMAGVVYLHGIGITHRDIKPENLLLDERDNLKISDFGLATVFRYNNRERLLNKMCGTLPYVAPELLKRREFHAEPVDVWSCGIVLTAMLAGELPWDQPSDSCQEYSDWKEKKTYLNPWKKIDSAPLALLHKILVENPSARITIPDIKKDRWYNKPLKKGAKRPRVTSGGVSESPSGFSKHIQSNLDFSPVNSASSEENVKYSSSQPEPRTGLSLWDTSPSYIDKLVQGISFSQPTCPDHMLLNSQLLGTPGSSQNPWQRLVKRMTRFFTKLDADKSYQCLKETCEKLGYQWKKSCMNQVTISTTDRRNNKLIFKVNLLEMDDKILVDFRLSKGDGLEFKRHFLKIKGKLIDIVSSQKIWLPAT
Put plainly: Inhibition of human CHK1 at 1 uM relative to control; values are per cent of control.

Experiment [9] concerns the target T3, Inhibitor of nuclear factor kappa-B kinase subunit alpha (Homo sapiens) (UniProt O15111).
T3 sequence (whole entry): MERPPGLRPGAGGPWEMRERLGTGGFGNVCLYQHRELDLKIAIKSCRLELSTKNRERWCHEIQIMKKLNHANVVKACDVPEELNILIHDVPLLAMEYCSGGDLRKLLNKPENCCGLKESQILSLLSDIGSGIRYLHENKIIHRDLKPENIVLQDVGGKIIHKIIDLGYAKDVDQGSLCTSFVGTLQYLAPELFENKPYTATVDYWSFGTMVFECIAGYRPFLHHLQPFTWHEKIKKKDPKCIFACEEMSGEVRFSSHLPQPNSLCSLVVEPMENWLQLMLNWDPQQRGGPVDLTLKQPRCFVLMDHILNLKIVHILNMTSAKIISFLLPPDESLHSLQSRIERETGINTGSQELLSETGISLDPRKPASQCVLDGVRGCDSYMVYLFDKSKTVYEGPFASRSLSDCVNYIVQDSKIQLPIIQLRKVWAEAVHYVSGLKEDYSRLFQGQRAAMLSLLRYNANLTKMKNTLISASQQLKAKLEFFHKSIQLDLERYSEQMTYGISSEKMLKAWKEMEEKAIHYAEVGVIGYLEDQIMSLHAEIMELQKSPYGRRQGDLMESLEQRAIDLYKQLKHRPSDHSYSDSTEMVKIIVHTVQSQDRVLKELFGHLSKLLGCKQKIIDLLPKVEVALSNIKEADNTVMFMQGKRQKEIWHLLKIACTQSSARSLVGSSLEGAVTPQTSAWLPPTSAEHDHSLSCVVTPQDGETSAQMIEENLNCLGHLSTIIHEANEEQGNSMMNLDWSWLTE
The experiment can be described thus: Residual activity of human IKKalpha at 1 uM relative to control.

Experiment [10] addresses Ribosomal protein S6 kinase alpha-3 (Homo sapiens) (UniProt P51812). The experiment can be described thus: Inhibition of human Rsk3 at 1 uM relative to control; values are per cent of control.
Experiment [11] addresses Proto-oncogene tyrosine-protein kinase ROS (Homo sapiens) (UniProt P08922). Put plainly: Inhibition of human Ros kinase at 1 uM relative to control; values are per cent of control.
In experiment [12] the target is Rho-associated protein kinase 2 (Rattus norvegicus) (UniProt Q62868). The experiment can be described thus: Residual activity of rat ROCK2 at 1 uM relative to control.
In experiment [13] the target is Tyrosine-protein kinase ABL1 (Homo sapiens) (UniProt P00519). Put plainly: Residual activity of human Abl kinase at 1 uM relative to control.

Sequence of Ribosomal protein S6 kinase alpha-3 (Homo sapiens) (P51812 whole entry): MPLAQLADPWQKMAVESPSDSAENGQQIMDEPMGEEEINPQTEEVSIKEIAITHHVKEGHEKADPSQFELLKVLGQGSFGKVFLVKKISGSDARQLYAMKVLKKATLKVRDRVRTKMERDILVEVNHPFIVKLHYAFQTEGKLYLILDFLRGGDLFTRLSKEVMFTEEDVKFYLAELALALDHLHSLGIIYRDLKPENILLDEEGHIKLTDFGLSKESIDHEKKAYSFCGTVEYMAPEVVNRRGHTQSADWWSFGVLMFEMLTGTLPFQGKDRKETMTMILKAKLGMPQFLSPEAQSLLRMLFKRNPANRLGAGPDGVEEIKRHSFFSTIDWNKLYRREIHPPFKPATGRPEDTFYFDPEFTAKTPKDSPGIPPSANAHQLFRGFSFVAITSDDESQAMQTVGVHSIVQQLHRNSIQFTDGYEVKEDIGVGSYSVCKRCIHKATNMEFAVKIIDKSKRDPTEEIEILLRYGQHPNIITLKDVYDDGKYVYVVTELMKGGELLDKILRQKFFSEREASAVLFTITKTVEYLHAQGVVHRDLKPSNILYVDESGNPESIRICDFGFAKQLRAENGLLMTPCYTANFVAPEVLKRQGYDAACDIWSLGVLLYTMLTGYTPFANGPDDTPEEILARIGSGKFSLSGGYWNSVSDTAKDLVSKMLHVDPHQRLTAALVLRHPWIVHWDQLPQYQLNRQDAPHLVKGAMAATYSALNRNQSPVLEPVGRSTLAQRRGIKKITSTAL
Sequence of Proto-oncogene tyrosine-protein kinase ROS (Homo sapiens) (P08922 whole entry): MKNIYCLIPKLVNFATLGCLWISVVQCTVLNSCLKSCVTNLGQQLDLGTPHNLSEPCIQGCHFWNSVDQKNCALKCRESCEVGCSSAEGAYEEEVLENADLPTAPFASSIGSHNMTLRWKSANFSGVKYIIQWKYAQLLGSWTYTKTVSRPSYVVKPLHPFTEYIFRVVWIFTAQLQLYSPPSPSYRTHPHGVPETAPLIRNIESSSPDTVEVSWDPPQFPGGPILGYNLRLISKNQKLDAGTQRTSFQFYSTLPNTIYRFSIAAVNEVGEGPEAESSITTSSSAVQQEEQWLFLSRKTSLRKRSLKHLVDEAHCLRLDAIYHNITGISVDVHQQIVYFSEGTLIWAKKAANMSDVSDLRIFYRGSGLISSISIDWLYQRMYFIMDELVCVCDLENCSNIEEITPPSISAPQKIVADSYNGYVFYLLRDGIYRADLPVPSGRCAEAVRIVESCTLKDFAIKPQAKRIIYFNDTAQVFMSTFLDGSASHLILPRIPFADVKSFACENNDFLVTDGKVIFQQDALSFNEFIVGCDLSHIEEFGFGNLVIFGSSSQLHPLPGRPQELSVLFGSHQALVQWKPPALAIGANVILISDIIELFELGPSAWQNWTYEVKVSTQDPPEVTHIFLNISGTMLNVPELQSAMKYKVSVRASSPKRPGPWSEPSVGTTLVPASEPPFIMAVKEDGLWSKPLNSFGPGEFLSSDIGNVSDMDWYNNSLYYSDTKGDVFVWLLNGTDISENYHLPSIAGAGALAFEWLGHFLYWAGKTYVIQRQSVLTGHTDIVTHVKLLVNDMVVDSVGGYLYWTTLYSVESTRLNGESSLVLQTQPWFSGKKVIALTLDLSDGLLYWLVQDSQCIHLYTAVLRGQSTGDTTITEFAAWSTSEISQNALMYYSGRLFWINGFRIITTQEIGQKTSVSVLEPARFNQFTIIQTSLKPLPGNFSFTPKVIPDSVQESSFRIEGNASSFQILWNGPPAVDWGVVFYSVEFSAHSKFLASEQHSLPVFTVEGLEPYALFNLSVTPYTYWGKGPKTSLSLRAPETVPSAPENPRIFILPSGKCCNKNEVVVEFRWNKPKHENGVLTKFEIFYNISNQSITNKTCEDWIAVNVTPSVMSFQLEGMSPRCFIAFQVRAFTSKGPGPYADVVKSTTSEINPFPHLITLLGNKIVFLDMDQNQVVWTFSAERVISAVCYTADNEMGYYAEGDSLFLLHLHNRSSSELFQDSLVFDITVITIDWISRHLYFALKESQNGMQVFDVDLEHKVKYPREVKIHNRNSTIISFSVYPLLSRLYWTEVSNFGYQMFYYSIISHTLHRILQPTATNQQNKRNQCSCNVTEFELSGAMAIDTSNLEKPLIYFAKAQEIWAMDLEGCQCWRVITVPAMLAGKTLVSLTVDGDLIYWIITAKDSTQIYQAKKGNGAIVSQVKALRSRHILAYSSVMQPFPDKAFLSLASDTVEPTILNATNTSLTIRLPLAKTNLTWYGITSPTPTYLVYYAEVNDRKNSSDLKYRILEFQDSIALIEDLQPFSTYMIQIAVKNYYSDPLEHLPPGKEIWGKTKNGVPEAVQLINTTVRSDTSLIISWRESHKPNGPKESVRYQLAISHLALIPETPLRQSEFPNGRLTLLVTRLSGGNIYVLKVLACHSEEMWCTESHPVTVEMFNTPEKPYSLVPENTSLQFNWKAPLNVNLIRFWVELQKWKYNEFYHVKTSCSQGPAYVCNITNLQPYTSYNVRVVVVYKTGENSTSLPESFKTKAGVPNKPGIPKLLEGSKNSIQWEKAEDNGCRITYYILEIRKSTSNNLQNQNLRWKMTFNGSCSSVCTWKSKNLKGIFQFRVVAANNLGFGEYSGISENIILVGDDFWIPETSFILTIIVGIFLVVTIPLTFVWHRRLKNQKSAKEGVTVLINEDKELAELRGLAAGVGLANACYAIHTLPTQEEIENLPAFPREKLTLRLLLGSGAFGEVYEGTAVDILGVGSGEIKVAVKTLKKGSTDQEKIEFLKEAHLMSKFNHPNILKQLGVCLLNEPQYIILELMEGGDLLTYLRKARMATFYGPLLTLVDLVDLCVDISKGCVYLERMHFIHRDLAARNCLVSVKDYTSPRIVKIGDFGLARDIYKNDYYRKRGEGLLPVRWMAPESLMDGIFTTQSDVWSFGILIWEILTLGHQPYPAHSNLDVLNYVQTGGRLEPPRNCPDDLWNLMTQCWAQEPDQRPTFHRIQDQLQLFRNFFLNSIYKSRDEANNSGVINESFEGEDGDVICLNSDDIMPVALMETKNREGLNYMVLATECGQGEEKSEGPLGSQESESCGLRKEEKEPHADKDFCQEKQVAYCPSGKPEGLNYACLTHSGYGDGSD
Sequence of Glycogen synthase kinase-3 alpha (Homo sapiens) (P49840 2-483 limits assumed): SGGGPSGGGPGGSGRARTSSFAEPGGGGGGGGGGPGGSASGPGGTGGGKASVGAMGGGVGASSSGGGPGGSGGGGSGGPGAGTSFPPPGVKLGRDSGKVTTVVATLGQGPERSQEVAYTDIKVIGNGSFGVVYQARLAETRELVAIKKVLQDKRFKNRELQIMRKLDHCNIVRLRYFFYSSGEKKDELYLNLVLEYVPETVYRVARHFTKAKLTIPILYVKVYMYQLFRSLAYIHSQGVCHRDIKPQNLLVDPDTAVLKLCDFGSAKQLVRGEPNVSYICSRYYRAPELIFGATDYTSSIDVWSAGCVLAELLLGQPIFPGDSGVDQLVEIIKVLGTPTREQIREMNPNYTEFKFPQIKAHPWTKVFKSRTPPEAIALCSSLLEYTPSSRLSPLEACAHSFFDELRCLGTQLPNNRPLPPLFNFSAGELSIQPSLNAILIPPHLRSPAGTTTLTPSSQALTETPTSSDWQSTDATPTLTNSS
Sequence of Rho-associated protein kinase 2 (Rattus norvegicus) (Q62868 whole entry, looked up): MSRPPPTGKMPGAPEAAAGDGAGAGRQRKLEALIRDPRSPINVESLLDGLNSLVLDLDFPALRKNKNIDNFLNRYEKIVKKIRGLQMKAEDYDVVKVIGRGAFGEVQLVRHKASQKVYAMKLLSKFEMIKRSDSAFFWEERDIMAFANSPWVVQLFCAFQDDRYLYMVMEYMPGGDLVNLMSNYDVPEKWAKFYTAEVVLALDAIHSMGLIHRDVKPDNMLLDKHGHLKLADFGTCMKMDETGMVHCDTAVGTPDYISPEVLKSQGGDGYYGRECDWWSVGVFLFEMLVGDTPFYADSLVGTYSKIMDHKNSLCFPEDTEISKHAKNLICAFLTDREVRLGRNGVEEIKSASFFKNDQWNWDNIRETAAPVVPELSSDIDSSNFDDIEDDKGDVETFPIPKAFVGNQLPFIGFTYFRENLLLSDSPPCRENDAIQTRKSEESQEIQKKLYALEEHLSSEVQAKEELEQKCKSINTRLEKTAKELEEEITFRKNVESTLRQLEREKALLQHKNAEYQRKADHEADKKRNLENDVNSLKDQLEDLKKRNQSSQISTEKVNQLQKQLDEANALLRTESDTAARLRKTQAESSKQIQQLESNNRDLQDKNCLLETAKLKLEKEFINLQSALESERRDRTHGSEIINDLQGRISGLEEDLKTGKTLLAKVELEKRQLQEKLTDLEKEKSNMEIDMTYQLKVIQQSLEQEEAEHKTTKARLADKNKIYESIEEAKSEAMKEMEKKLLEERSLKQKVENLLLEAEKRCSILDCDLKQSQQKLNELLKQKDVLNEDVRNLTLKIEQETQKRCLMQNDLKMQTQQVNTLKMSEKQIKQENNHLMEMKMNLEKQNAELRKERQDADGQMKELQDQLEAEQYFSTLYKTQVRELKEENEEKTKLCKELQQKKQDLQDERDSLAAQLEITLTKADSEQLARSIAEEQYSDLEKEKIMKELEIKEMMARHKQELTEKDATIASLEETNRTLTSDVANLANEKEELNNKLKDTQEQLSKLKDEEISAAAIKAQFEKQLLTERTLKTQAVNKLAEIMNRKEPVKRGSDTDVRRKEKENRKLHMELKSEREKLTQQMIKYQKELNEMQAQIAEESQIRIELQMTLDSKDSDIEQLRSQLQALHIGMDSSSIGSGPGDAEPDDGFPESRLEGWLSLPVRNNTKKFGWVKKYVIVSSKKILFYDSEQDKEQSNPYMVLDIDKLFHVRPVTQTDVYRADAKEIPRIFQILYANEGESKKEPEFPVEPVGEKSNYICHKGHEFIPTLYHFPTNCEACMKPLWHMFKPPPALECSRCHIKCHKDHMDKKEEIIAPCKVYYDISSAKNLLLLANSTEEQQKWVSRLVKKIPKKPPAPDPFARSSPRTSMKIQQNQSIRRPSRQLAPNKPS

As for `O=C1NC(=O)C2=C1c1cn(c3ccccc13)CCCc1ccc(c(N3CCCC3)n1)CCCn1cc2c2ccccc21`, the residual activity in experiment [1] was determined as 86%; in experiment [2] it was 93%; in experiment [3], 91%; in experiment [4], 109%; in [5] it was 9%; in experiment [6], 104%. The residual activity was determined as 106% in [7]; 106% in experiment [8]; 121% in experiment [9]; 25% in experiment [10]; 105% in experiment [11]; 91% in [12]. Further, the residual activity in experiment [13] is 108%.
`O=C1NC(=O)C2=C1c1cn(c3ccccc13)CCCc1cc(nc(N3CCCC3)c1)CCCn1cc2c2ccccc21`: the residual activity in experiment [1] is 100%; in experiment [2], 92%; in experiment [3], 104%; in experiment [4] it was 105%; in experiment [5] it was 4%; in experiment [6], 107%. Also, the residual activity in [7] stood at 112%; in experiment [8], 110%; in [9] it was 132%; in experiment [10], 5%; in experiment [11], 117%; in [12], 83%. Besides, the residual activity in experiment [13] came to 107%.
Take `CN(C)c1nc2ccc1CCCn1cc(c3ccccc31)C1=C(C(=O)NC1=O)c1cn(c3ccccc13)CC2`: the residual activity in experiment [1] was 103%; in experiment [2], 108%; in experiment [3] it was 73%; in experiment [4] it was 86%; in [5], 4%; in experiment [6], 110%. The residual activity in experiment [7] stood at 94%; in [8], 105%; in experiment [9], 92%; in experiment [10] it was 33%; in experiment [11] it was 79%; in experiment [12], 101%. In experiment [13], the residual activity was 105%.
As for `CN(C)c1cc2cc(n1)CCCn1cc(c3ccccc31)C1=C(C(=O)NC1=O)c1cn(c3ccccc13)CCC2`, the residual activity in [1] is 84%; in [2], 92%; in [3], 100%; in experiment [4], 101%; in [5] it was 3%; in experiment [6] it was 103%. For the same compound, the residual activity amounted to 114% in [7]; 101% in [8]; 133% in [9]; 5% in experiment [10]; 108% in [11]; 92% in [12]. Further, the residual activity in experiment [13] stood at 98%.
